Holding throughout (assay type): in vivo
Experiment [1] relates to Alopecurus myosuroides (ALOMY). Briefly: Test Example 1 post-emergence herbicidal activity. Conditions: 360 h, rate 125 g/ha, evaluated 15 days later, read-out: Post-emergence activity ALOMY (100=total damage to plant; 0=no damage to plant). Summed up:
(§1)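 Greenhouse pot test; spray application pre-emergence (1 d after sowing) or post-emergence (10 d growth). Rating 0–100% damage; pre read at 20 d, post at 15 d.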

The subject of experiment [2] is Lolium perenne (LOLPE). In words: Test Example 1 post-emergence herbicidal activity. Conditions: 360 h, rate 125 g/ha, evaluated 15 days later, read-out: Post-emergence activity LOLPE (100=total damage to plant; 0=no damage to plant). In a few lines: as §1
Experiment [3] has as its system Echinochloa crus-galli (ECHCG). Briefly: Test Example 1 post-emergence herbicidal activity. Conditions: 360 h, rate 125 g/ha, evaluated 15 days later, read-out: Post-emergence activity ECHCG (100=total damage to plant; 0=no damage to plant). In a few lines:
as §1

In experiment [4] the test system is Digitaria sanguinalis (DIGSA). Briefly: Test Example 1 post-emergence herbicidal activity. Conditions: 360 h, rate 125 g/ha, evaluated 15 days later, read-out: Post-emergence activity DIGSA (100=total damage to plant; 0=no damage to plant). In a few lines: as §1
For experiment [5], the system named is Setaria faberi (SETFA). Briefly: Test Example 1 post-emergence herbicidal activity. The note with it: 360 h, rate 125 g/ha, evaluated 15 days later, read-out: Post-emergence activity SETFA (100=total damage to plant; 0=no damage to plant). In a few lines:
as §1

The subject of experiment [6] is Avena fatua (AVEFA). Briefly: Test Example 1 post-emergence herbicidal activity. The note with it: 360 h, rate 125 g/ha, evaluated 15 days later, read-out: Post-emergence activity AVEFA (100=total damage to plant; 0=no damage to plant). In a few lines: as §1
Experiment [7] relates to Alopecurus myosuroides (ALOMY). Briefly: Test Example 1 pre-emergence herbicidal activity. Conditions: Alopecurus myosuroides, 480 h, rate 250 g/ha, evaluated 20 days later, read-out: Pre-emergence activity ALOMY (100=total damage to plant; 0=no damage to plant). In a few lines: as §1
Experiment [8] has as its system Lolium perenne (LOLPE). In words: Test Example 1 pre-emergence herbicidal activity. Conditions: Lolium perenne, 480 h, rate 250 g/ha, evaluated 20 days later, read-out: Pre-emergence activity LOLPE (100=total damage to plant; 0=no damage to plant). In a few lines:
as §1

In experiment [9] the test system is Echinochloa crus-galli (ECHCG). In words: Test Example 1 pre-emergence herbicidal activity. The note with it: Echinochloa crus-galli, 480 h, rate 250 g/ha, evaluated 20 days later, read-out: Pre-emergence activity ECHCG (100=total damage to plant; 0=no damage to plant). In a few lines: as §1
Experiment [10] concerns Digitaria sanguinalis (DIGSA). Briefly: Test Example 1 pre-emergence herbicidal activity. The note with it: Digitaria sanguinalis, 480 h, rate 250 g/ha, evaluated 20 days later, read-out: Pre-emergence activity DIGSA (100=total damage to plant; 0=no damage to plant). Summed up: as §1
Experiment [11] relates to Setaria faberi (SETFA). Briefly: Test Example 1 pre-emergence herbicidal activity. Conditions: Setaria faberi, 480 h, rate 250 g/ha, evaluated 20 days later, read-out: Pre-emergence activity SETFA (100=total damage to plant; 0=no damage to plant). In a few lines: as §1
In experiment [12] the test system is Avena fatua (AVEFA). Briefly: Test Example 1 pre-emergence herbicidal activity. The note with it: Avena fatua, 480 h, rate 250 g/ha, evaluated 20 days later, read-out: Pre-emergence activity AVEFA (100=total damage to plant; 0=no damage to plant). Summed up: as §1

The values that follow come from patent publication US8754242B2, “Herbicides” (Syngenta Crop Protection LLC, priority 2007, dated 2014).

Turning to `CCc1cc(C)cc(CC)c1C1=C(O)[C@@H]2[C@@H]3O[C@@H](C[C@H]3c3cccc(C)c3)[C@@H]2C1=O` [Example T179], the pest or weed control at 125 g/ha turned out to be 80% in experiment [1]; 80% in [2]; 70% in experiment [3]; 50% in experiment [4]; 10% in experiment [5]; 80% in experiment [6]. Besides, the pest or weed control at 250 g/ha in experiment [7] amounted to 70%; in [8], 80%; in experiment [9], 70%; in [10], 60%; in experiment [11] it was 10%; in experiment [12], 60%.
For the compound `CCc1cc(C)cc(CC)c1C1=C(O)[C@@H]2[C@@H]3O[C@@H](C[C@H]3c3cccc(C#N)c3)[C@@H]2C1=O` [Example T182], the pest or weed control at 125 g/ha is 100% in experiment [1]; 80% in experiment [2]; 100% in [3]; 100% in experiment [4]; 100% in experiment [5]; 90% in experiment [6]. Besides, the pest or weed control at 250 g/ha in [7] was found to be 30%; in [8] it was 40%; in experiment [9], 90%; in [10], 80%; in [11], 50%; in experiment [12], 50%.
As for `CCc1cc(C)cc(CC)c1C1=C(O)[C@@H]2[C@@H]3O[C@@H](C[C@H]3c3ccc(F)cc3)[C@@H]2C1=O` [Example T185], the pest or weed control at 125 g/ha is 90% in experiment [1]; 80% in [2]; 100% in experiment [3]; 100% in [4]; 100% in experiment [5]; 80% in experiment [6]. The pest or weed control at 250 g/ha in experiment [7] came out at 80%; in experiment [8], 100%; in experiment [9], 80%; in [10], 80%; in experiment [11] it was 80%; in experiment [12], 80%.
As for `Cc1cc(C)c(C2=C(O)[C@@H]3[C@@H]4O[C@@H](C[C@H]4c4cnccn4)[C@@H]3C2=O)c(C)c1` [Example T187], the pest or weed control at 125 g/ha in experiment [1] is 70%; in experiment [2], 40%; in experiment [3], 70%; in experiment [4] it was 60%; in experiment [5] it was 60%; in [6], 10%. Besides, the pest or weed control at 250 g/ha in experiment [7] was 10%; in [8], 60%; in [9], 10%; in experiment [10], 20%; in [11], 40%; in experiment [12], 20%.
Regarding `Cc1cc(C)c(C2=C(O)[C@@H]3[C@@H]4O[C@@H](C[C@H]4c4cnc5ccccc5n4)[C@@H]3C2=O)c(C)c1` [Example T188], the pest or weed control at 125 g/ha in experiment [1] came out at 80%; in experiment [2], 30%; in [3], 100%; in experiment [4], 100%; in experiment [5] it was 70%; in experiment [6] it was 70%. Besides, the pest or weed control at 250 g/ha in experiment [7] turned out to be 40%; in [8], 50%; in experiment [9], 60%; in [10], 100%; in experiment [11] it was 70%; in experiment [12], 0%.
Consider `Cc1cc(C)c(C2=C(O)[C@@H]3[C@@H]4O[C@@H](C[C@H]4c4nc(C)cnc4C)[C@@H]3C2=O)c(C)c1` [Example T193], for which the pest or weed control at 125 g/ha in experiment [1] is 60%; in [2] it was 30%; in experiment [3], 60%; in experiment [4], 60%; in [5], 30%; in experiment [6], 40%. Further, the pest or weed control at 250 g/ha in [7] was found to be 20%; in experiment [8] it was 60%; in experiment [9], 20%; in experiment [10], 20%; in experiment [11], 40%; in experiment [12], 30%.
With `CCc1nc2ccccc2nc1[C@@H]1C[C@@H]2O[C@H]1[C@H]1C(O)=C(c3c(C)cc(C)cc3C)C(=O)[C@H]12` [Example T194], the pest or weed control at 125 g/ha stood at 30% in experiment [1]; 20% in experiment [2]; 80% in experiment [3]; 70% in experiment [4]; 0% in [5]; 0% in [6]. Further, the pest or weed control at 250 g/ha in [7] stood at 0%; in experiment [8] it was 20%; in [9], 50%; in [10], 70%; in experiment [11] it was 50%; in experiment [12] it was 20%.
Take `Cc1cc(C)c(C2=C(O)[C@@H]3[C@@H]4O[C@@H](C[C@H]4c4ncc(C(F)(F)F)cc4C(F)(F)F)[C@@H]3C2=O)c(C)c1` [Example T203]: the pest or weed control at 125 g/ha was determined as 20% in experiment [1]; 10% in [2]; 50% in experiment [3]; 50% in [4]; 0% in experiment [5]; 10% in experiment [6]. For the same compound, the pest or weed control at 250 g/ha in experiment [7] is 20%; in [8] it was 60%; in [9], 90%; in [10], 70%; in experiment [11] it was 70%; in [12] it was 20%.
On to `COc1cc(C)c(C2=C(O)[C@H]3[C@@H](C2=O)[C@@H]2CC[C@H]3O2)c(C)c1` [Example T208], for which the pest or weed control at 125 g/ha in [1] was determined as 70%; in experiment [2] it was 80%; in experiment [3], 80%; in experiment [4], 50%; in experiment [5], 70%; in experiment [6], 70%. Also, the pest or weed control at 250 g/ha in experiment [7] is 50%; in experiment [8], 80%; in [9] it was 80%; in [10], 70%; in experiment [11], 80%; in [12] it was 70%.
